Experimental data as given in patent US20030143172A1, “Hair treatment agent” (priority 2001, published 2003).

Key:
[1] = Ability of preventing decolorization of melanin pigment caused by chlorine (absorbance at 400 nm); set-up: species or system sepia officinailis; settings: for 3 Hours After Addition abs / 6 Hours After Addition abs / Before Addition abs: 400 nm; for 3 Hours After Addition abs / Residual Ratio, 3H: 3 hours after addition of chlorine water; for 6 Hours After Addition abs / Residual Ratio, 6H: 6 hours after addition of chlorine water; for Before Addition abs: before addition of chlorine water (baseline)
Experimental: A melanin pigment (sepia officinailis) was added to a 2 N aqueous sodium hydroxide solution and dissolved under heating at 80° C. for 2 hours to adjust the melanin pigment content in the solution to 50 ppm. This melanin pigment solution was divided into 5 vessels and 5 kinds in total of sample solutions were prepared, namely, solutions adjusted to an APS concentration of 10 mM and 50 mM, solutions adjusted to an AG concentration of 10 mM and 50 mM, and a control having added thereto neither APS nor AG. Then, 4 ml of each solution was sampled in a sampling bottle and 0.5 ml of commercially available chlorine water (free chlorine concentration: about 0.43%) was added to each sampling bottle. As a blank, a melanin pigment solution was used. The prevention of melanin decolorization was evaluated by measuring the absorbance (abs) at 400 nm using a spectrophotometer when 3 hours (3 H) and 6 hours (6H) were passed after the addition of chlorine water.

[2] = Dechlorinating ability (iodometric titration of free chlorine in chlorine water); settings: initial free chlorine 0.43
Experimental: To chlorine water having a previously determined free chlorine concentration, APS or AG was added and the amount of free chlorine decreased was measured. The free chlorine amount was measured by iodometric titiration.
To each of three Erlenmeyer flasks with a stopper, 10 ml of chlorine water having a known free chlorine concentration was added and thereto, APS or AG in an equimolar amount, 1.5 times molar amount or 2 times molar amount to the free chlorine in the solution was added and stirred. After 5 minutes, 10 minutes, 15 minutes and 20 minutes, the amount of free chlorine was titrated.
In the titration, 2 ml of each reaction solution was charged into another Erlenmeyer flask with a stopper, 50 ml of distilled water was added thereto, 1.0 g of potassium iodide and 1 ml of a 0.2% starch solution were further added and after stirring, a 0.1 N sodium thiosulfate standard solution was added dropwise. The point where purple color was faded out was designated as a final point. From the amount of sodium thiosulfate added dropwise at this time, the amount of free chlorine was calculated.

[3] = Ability of preventing hair damage caused by chlorine (color difference ΔE of hair); set-up: species or system human; settings: aqueous 10 mM solution, chlorine water, one hour
Experimental: 120 ml of an aqueous 10 mM APS solution, 120 ml of an aqueous 10 mM AG solution and 120 ml of purified water each was poured into two bottles with a screw opening. In the aqueous 10 mM APS solution, the aqueous 10 mM AG solution or the purified water, hair of an adult and hair of a child, which were previously subjected to the measurement of color (L*a*b color specification) by a spectrocolorimeter (Macbeth Gretag APM50), each was immersed in an amount of 70 to 80 mg while stirring. To each solution in which the hair was immersed, 15 ml of a commercially available chlorine water (concentration of free chlorine: about 0.43%) was added. After stirring for one hour, the hair was filtered, washed with water and air-dried. The resulting hairs were measured on the color (L*a*b* color specification) and from the values obtained, the color difference ΔE value was calculated.

[4] = Ability of preventing hair damage caused by sunlight (weather meter irradiation, ΔE of hair); settings: pH 7.2, irradiation 24 hours
Experimental: An APS solution, an AG solution, which were each adjusted to a pH of 7.2 and a concentration of 10 mM or 100 mM, and purified water (control) each was charged into a polyethylene bag and in respective bags, from 70 to 80 g of hair previously measured on the color (L*a*b* color specification) by a spectrocolorimeter (Macbeth Gretag APM50) was enclosed. After the immersion for about 2 hours, light was irradiated thereon using a weather meter (high energy xenon weather meter, manufactured by Suga Shikenki K. K.). The irradiation time was 24 hours and the integrated light intensity was about 10,000 kj/m^2. The hair after the irradiation was washed with purified water, air-dried and then subjected to the measurement of color (L*a*b* color specification) and from the values obtained, the color difference ΔE value was calculated.

[5] = Hydroxy radical-scavenging ability (ESR-spin trap method); format: biochemical
Experimental: Using “ESR-spin trap method”, the radical scavenging in percentage of each of ascorbyl 2-phosphate sodium salt (APS), ascorbyl 2-phosphate magnesium salt (APM) and ascorbyl 2-glucoside (AG) was measured. The radicals were chemically generated.
10 μl of 1M HEPES buffer solution (pH: 7.2), 10 μl of 1 mM diethylenetriaminepentaacetic acid, each of 20 μl of APS, APM or AG solution, 100 μl of purified water, 40 μl of 40 mM 2,2′-azobis(2-methylpropionamidine)dihydrochloride and 20 μl of 0.5 M 5,5-dimethyl-1-pyrroline-N-oxide were added and mixed. The obtained solutions were sequentially enclosed into flat cells for ESR and the cells were placed in an ESR apparatus (“JES-RE1X”, manufactured by JEOL Ltd.) and subjected to the measurement of hydroxy radical-scavenging ability. The hydroxy radical-scavenging ability is shown by S/M value (area value of spectrum/area value of manganese marker) and the scavenging ratio is shown by percentage (%).

[6] = molar ratio additive:free chlorine 1.0:1.0
[7] = molar ratio additive:free chlorine 1.5:1.0
[8] = molar ratio additive:free chlorine 2.0:1.0

Compound: O=C1O[C@H]([C@@H](O)CO)C(O)=C1O[C@H]1O[C@H](CO)[C@@H](O)[C@H](O)[C@H]1O [AG, ascorbyl 2-glucoside]
- 3 Hours After Addition abs ([1]; additive 10 mM): 0.458 abs
- 6 Hours After Addition abs ([1]; additive 10 mM): 0.447 abs
- Before Addition abs ([1]; additive 10 mM): 0.575 abs
- Residual Ratio, 3H ([1]; additive 10 mM): 0.797
- Residual Ratio, 6H ([1]; additive 10 mM): 0.777
- 3 Hours After Addition abs ([1]; additive 50 mM): 0.553 abs
- 6 Hours After Addition abs ([1]; additive 50 mM): 0.540 abs
- Before Addition abs ([1]; additive 50 mM): 0.569 abs
- Residual Ratio, 3H ([1]; additive 50 mM): 0.972
- Residual Ratio, 6H ([1]; additive 50 mM): 0.949
- Free chlorine After 5 Minutes [2, 6]: 0.033%
- Free chlorine After 10 Minutes [2, 6]: 0.02%
- Free chlorine After 15 Minutes [2, 6]: 0.01%
- Free chlorine After 20 Minutes [2, 6]: 0%
- Free chlorine After 5 Minutes [2, 7]: 0.008%
- Free chlorine After 10 Minutes [2, 7]: 0%
- Free chlorine After 15 Minutes [2, 7]: 0%
- Free chlorine After 20 Minutes [2, 7]: 0%
- Free chlorine After 5 Minutes [2, 8]: 0%
- Free chlorine After 10 Minutes [2, 8]: 0%
- Free chlorine After 15 Minutes [2, 8]: 0%
- Free chlorine After 20 Minutes [2, 8]: 0%
- ΔE Value of Hair Treated With Chlorine ([3]; hair of child): 1.1
- ΔE Value of Weather Meter Treated-hair ([4]; concentration 10 mM): 10.72
- ΔE Value of Weather Meter Treated-hair ([4]; concentration 100 mM): 6.01
- Radical scavenging, % (S/M relative to 0 mM = 100.0) ([5]; concentration 0.01 mM): 98.5%
- S/M (area value of spectrum/area value of manganese marker) ([5]; concentration 0.01 mM): 0.64
- Radical scavenging, % (S/M relative to 0 mM = 100.0) ([5]; concentration 0.03 mM): 89.2%
- S/M (area value of spectrum/area value of manganese marker) ([5]; concentration 0.03 mM): 0.58
- Radical scavenging, % (S/M relative to 0 mM = 100.0) ([5]; concentration 0.1 mM): 98.5%
- S/M (area value of spectrum/area value of manganese marker) ([5]; concentration 0.1 mM): 0.64
- Radical scavenging, % (S/M relative to 0 mM = 100.0) ([5]; concentration 0.3 mM): 90.8%
- S/M (area value of spectrum/area value of manganese marker) ([5]; concentration 0.3 mM): 0.59
- Radical scavenging, % (S/M relative to 0 mM = 100.0) ([5]; concentration 1 mM): 61.5%
- S/M (area value of spectrum/area value of manganese marker) ([5]; concentration 1 mM): 0.40

Compound: O=C1O[C@H]([C@@H](O)CO)C([O-])=C1OP(=O)([O-])[O-].[Na+].[Na+].[Na+] [APS, ascorbyl 2-phosphate sodium salt]
- 3 Hours After Addition abs ([1]; additive 10 mM): 0.449 abs
- 6 Hours After Addition abs ([1]; additive 10 mM): 0.453 abs
- Before Addition abs ([1]; additive 10 mM): 0.577 abs
- Residual Ratio, 3H ([1]; additive 10 mM): 0.773
- Residual Ratio, 6H ([1]; additive 10 mM): 0.785
- 3 Hours After Addition abs ([1]; additive 50 mM): 0.545 abs
- 6 Hours After Addition abs ([1]; additive 50 mM): 0.505 abs
- Before Addition abs ([1]; additive 50 mM): 0.592 abs
- Residual Ratio, 3H ([1]; additive 50 mM): 0.921
- Residual Ratio, 6H ([1]; additive 50 mM): 0.853
- Free chlorine After 5 Minutes [2, 6]: 0.02%
- Free chlorine After 10 Minutes [2, 6]: 0.012%
- Free chlorine After 15 Minutes [2, 6]: 0.008%
- Free chlorine After 20 Minutes [2, 6]: 0%
- Free chlorine After 5 Minutes [2, 7]: 0.005%
- Free chlorine After 10 Minutes [2, 7]: 0%
- Free chlorine After 15 Minutes [2, 7]: 0%
- Free chlorine After 20 Minutes [2, 7]: 0%
- Free chlorine After 5 Minutes [2, 8]: 0%
- Free chlorine After 10 Minutes [2, 8]: 0%
- Free chlorine After 15 Minutes [2, 8]: 0%
- Free chlorine After 20 Minutes [2, 8]: 0%
- ΔE Value of Hair Treated With Chlorine ([3]; hair of Adult person): 0.4
- ΔE Value of Hair Treated With Chlorine ([3]; hair of child): 0.5
- ΔE Value of Weather Meter Treated-hair ([4]; concentration 10 mM): 14.36
- ΔE Value of Weather Meter Treated-hair ([4]; concentration 100 mM): 4.54
- Radical scavenging, % (S/M relative to 0 mM = 100.0) ([5]; concentration 0.01 mM): 103.1%
- S/M (area value of spectrum/area value of manganese marker) ([5]; concentration 0.01 mM): 0.67
- Radical scavenging, % (S/M relative to 0 mM = 100.0) ([5]; concentration 0.03 mM): 104.6%
- S/M (area value of spectrum/area value of manganese marker) ([5]; concentration 0.03 mM): 0.68
- Radical scavenging, % (S/M relative to 0 mM = 100.0) ([5]; concentration 0.1 mM): 78.5%
- S/M (area value of spectrum/area value of manganese marker) ([5]; concentration 0.1 mM): 0.51
- Radical scavenging, % (S/M relative to 0 mM = 100.0) ([5]; concentration 0.3 mM): 53.8%
- S/M (area value of spectrum/area value of manganese marker) ([5]; concentration 0.3 mM): 0.35
- Radical scavenging, % (S/M relative to 0 mM = 100.0) ([5]; concentration 1 mM): 16.9%
- S/M (area value of spectrum/area value of manganese marker) ([5]; concentration 1 mM): 0.11

Compound: O=C1O[C@H]([C@@H](O)CO)C([O-])=C1OP(=O)([O-])[O-].O=C1O[C@H]([C@@H](O)CO)C([O-])=C1OP(=O)([O-])[O-].[Mg+2].[Mg+2].[Mg+2] [APM, ascorbyl 2-phosphate magnesium salt]
- Radical scavenging, % (S/M relative to 0 mM = 100.0) ([5]; concentration 0.01 mM): 89.2%
- S/M (area value of spectrum/area value of manganese marker) ([5]; concentration 0.01 mM): 0.58
- Radical scavenging, % (S/M relative to 0 mM = 100.0) ([5]; concentration 0.03 mM): 92.3%
- S/M (area value of spectrum/area value of manganese marker) ([5]; concentration 0.03 mM): 0.60
- Radical scavenging, % (S/M relative to 0 mM = 100.0) ([5]; concentration 0.1 mM): 81.5%
- S/M (area value of spectrum/area value of manganese marker) ([5]; concentration 0.1 mM): 0.53
- Radical scavenging, % (S/M relative to 0 mM = 100.0) ([5]; concentration 0.3 mM): 64.6%
- S/M (area value of spectrum/area value of manganese marker) ([5]; concentration 0.3 mM): 0.42
- Radical scavenging, % (S/M relative to 0 mM = 100.0) ([5]; concentration 1 mM): 18.5%
- S/M (area value of spectrum/area value of manganese marker) ([5]; concentration 1 mM): 0.12
